This note sets out measurements from PMC11104609, “Discovery of allosteric regulators with clinical potential to stabilize alpha-L-iduronidase in mucopolysaccharidosis type I” (PLOS ONE, 2024).

The nature of data set [1]: Precipitation observed in DSF dose response. The class given is physicochemical. The settings on record: DSF buffer 100 mM Hepes, 20 mM MgCl2, pH 7, 1% DMSO. The protocol:
The capacity of the compounds to stabilise IDUA was assessed by DSF. The thermal denaturation of purified human native enzyme was monitored in the presence of the extrinsic fluorescent probe SYPRO® Orange (Thermo Fisher Scientific, Waltham, MA, USA), which binds to hydrophobic parts of proteins that become exposed as the protein unfolds. […] Reactions containing 12.5 μL of 1.5 μM rhIDUA protein (purchased from R&D Systems) in 100 mM Hepes, 20 mM MgCl2, pH 7, to a final protein concentration of 0.75 μM with SYPRO Orange 10X, and 12.5 μL of the different compound solutions dissolved in 100% DMSO and diluted into the protein buffer to achieve final concentrations of 1% DMSO. The intensity of SYPRO Orange fluorescence after a systematic increase in temperature was monitored in the Roche LightCycler® 480 II device (Roche Diagnostics). The significance of the melting temperature (Tm) shifts was evaluated based on two criteria: absolute ΔTm shift > 0.5 °C (instrumental criterion) and absolute ΔTm standard deviation ≤ 0.2 (statistical criterion). The thermal shift dose response was performed at various increasing concentrations (from 0.04 to 90 μM) of compound #18 (GT-01803) with rhIDUA (obtained from the Institute of Biotechnology and Biomedicine at the Autonomous University of Barcelona (UAB), Bellaterra, Spain).

In a further data set the target is T1, rhIDUA (Aldurazyme) (Homo sapiens, UniProt P35475).
T1 sequence (P35475 28-653): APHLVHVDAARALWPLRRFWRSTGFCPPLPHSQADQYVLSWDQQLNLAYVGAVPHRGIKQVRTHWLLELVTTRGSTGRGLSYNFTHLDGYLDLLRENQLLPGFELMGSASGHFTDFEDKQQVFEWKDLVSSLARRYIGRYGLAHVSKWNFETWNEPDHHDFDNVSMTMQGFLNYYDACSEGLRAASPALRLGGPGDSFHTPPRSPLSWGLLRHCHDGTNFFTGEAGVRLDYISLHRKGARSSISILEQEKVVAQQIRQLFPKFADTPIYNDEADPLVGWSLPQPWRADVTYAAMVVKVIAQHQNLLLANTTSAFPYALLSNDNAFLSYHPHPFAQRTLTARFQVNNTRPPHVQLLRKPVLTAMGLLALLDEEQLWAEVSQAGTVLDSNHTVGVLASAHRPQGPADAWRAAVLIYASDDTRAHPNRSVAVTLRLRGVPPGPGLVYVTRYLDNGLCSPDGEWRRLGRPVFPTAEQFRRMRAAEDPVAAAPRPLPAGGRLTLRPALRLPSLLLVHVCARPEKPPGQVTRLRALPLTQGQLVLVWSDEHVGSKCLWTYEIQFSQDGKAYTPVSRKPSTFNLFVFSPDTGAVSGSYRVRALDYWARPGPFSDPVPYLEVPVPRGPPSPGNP
Put plainly: IDUA assay in plasma of mice co-administered rhIDUA and GT-01803. The class given is in vivo, male C57BL/6 mice. The settings on record: GT-01803 5, 10, 20 mg/kg i.v. + rhIDUA 1.2 mg/kg i.v.; 0.5, 1, 2 h; dose-dependent, significant at 20 mg/kg. How it is done: Mice studies were performed by Sai Life Sciences (Pune, India). All procedures of the present study were in accordance with the guidelines provided by the Committee for the Purpose of Control and Supervision of Experiments on Animals (CPCSEA) as published in The Gazette of India, December 15, 1998. In addition, prior approval from the Institutional Animal Ethics Committee (IAEC) was obtained before the initiation of the study. Healthy male C57BL/6 mice (8–10 weeks old) weighing between 22 and 25 g were procured (Global, Pune, India). Three to five mice were housed in each cage. Temperature and humidity were maintained at 22 ± 2 °C and 41–63%, respectively, and illumination was controlled to give a sequence of a 12 h light and 12 h dark cycle. In the study’s in-life phase, we provided all mice with cage enrichment to minimize anxiety. We conducted bone marrow sampling under isoflurane anesthesia, maintaining it throughout the entire procedure. […] All procedures were carried out according to our in-house Standard Operating Procedures and monitored by a veterinarian if required. […]
Plasma samples from mice were collected at 0.5, 1 and 2 h after treatment with compound #18 (GT-01803). […] The plate was read at excitation 355 nm and emission 460 nm in TECAN Infinite® M1000 Pro reader (Thermo Fisher Scientific, UK). […]

The structures appear in SMILES notation.

Turning to `CCN(CC(=O)Nc1c(Cl)cccc1Cl)Cc1nc2ccsc2c(=O)[nH]1` [GT-01803], the “concentration at which precipitation was observed” value in data set [1] was determined as 100 µM. Moreover, the “IDUA enzymatic activity levels in plasma” value on rhIDUA (Aldurazyme) is listed as “increased”.
